Experimental data from patent publication US12319672B2, “Alpha-D-galactopyranoside derivatives” (Idorsia Pharmaceuticals Ltd, priority 2019, dated 2025).

How the values were obtained:
human Gal-1 (hGal-1) = assay: Competitive binding assay: binding of biotinylated hGal-1 to microplate-adsorbed asialofetuin (ASF); conditions: Activities on hGal-1; mean values of several measurements
Method in brief: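 For hGal-1, a variant with all six cysteines replaced by serines is preferred. Either galectin, biotinylated at 300-1000 ng/mL, competes with compound for microplate-bound ASF over 3 h at 4° C; peroxidase/ABTS detection gives IC50, averaged.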

human Gal-3 (hGal-3) = human Gal-3 (hGal-3) (Homo sapiens (Human), UniProt P17931); assay: Competitive binding assay: binding of biotinylated hGal-3 to microplate-adsorbed asialofetuin (ASF); conditions: Activity on hGal-3; mean values of several measurements
Chain of human Gal-3 (hGal-3) (P17931 whole entry): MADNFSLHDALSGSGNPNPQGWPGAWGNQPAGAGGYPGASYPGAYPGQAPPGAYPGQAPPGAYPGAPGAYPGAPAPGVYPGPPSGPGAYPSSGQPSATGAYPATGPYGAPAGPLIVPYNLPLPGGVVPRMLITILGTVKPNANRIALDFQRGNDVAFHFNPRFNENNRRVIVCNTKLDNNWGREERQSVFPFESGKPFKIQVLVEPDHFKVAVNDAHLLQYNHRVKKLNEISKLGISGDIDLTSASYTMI
Method in brief: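 Spectrophotometric readout (streptavidin-peroxidase, ABTS) of biotinylated galectin retained on ASF-coated wells. Biotinylated hGal-1 or hGal-3, 300-1000 ng/mL, co-incubated with test compound 3 h at 4° C, then washed. Mean IC50 from repeat runs.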

Chain of human Gal-1 (hGal-1) (P09382 2-135 limits assumed): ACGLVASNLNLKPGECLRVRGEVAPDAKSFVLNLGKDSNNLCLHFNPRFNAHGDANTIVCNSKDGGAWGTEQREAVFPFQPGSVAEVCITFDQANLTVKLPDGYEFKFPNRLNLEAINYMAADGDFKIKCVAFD

Compound	IC50 (human Gal-1 (hGal-1))	IC50 (human Gal-3 (hGal-3))
OC[C@H]1O[C@H](CC2CC(C3CCCCC3)=NO2)[C@H](O)[C@@H](n2cc(-c3cc(F)c(F)c(F)c3)nn2)[C@H]1O (stereo partly drawn) [Ex 1.05]	7180 nM	480 nM
OC[C@H]1O[C@H](C[C@H]2CC(C3CCCCC3)=NO2)[C@H](O)[C@@H](n2cc(-c3cc(F)c(F)c(F)c3)nn2)[C@H]1O [Ex 1.06]	22200 nM	1800 nM
OC[C@H]1O[C@H](C[C@@H]2CC(C3CCCCC3)=NO2)[C@H](O)[C@@H](n2cc(-c3cc(F)c(F)c(F)c3)nn2)[C@H]1O [Ex 1.07]	4900 nM	520 nM
CO[C@@H]1[C@@H](n2cc(-c3cc(F)c(F)c(F)c3)nn2)[C@@H](O)[C@@H](CO)O[C@@H]1CC1CC(C2CCCCC2)=NO1 (stereo partly drawn) [Ex 1.08]	8740 nM	1080 nM
CO[C@@H]1[C@@H](n2cc(-c3cc(F)c(F)c(F)c3)nn2)[C@@H](O)[C@@H](CO)O[C@@H]1C[C@H]1CC(C2CCCCC2)=NO1 [Ex 1.09]	27500 nM	2150 nM
CO[C@@H]1[C@@H](n2cc(-c3cc(F)c(F)c(F)c3)nn2)[C@@H](O)[C@@H](CO)O[C@@H]1C[C@@H]1CC(C2CCCCC2)=NO1 [Ex 1.10]	5390 nM	560 nM
OC[C@H]1O[C@H](CC2CC(C3CCCC3)=NO2)[C@H](O)[C@@H](n2cc(-c3cc(F)c(F)c(F)c3)nn2)[C@H]1O (stereo partly drawn) [Ex 1.11]	5610 nM	510 nM
CO[C@@H]1[C@@H](n2cc(-c3cc(F)c(F)c(F)c3)nn2)[C@@H](O)[C@@H](CO)O[C@@H]1CC1CC(C2CCCC2)=NO1 (stereo partly drawn) [Ex 1.12]	3550 nM	670 nM
COc1ccc(C2=NOC(C[C@H]3O[C@H](CO)[C@H](O)[C@H](n4cc(-c5cc(F)c(F)c(F)c5)nn4)[C@H]3O)C2)c(Cl)c1 (stereo partly drawn) [Ex 1.13]	6340 nM	1110 nM
OC[C@H]1O[C@H](CC2CC(c3cncnc3)=NO2)[C@H](O)[C@@H](n2cc(-c3cc(F)c(F)c(F)c3)nn2)[C@H]1O (stereo partly drawn) [Ex 1.14]	2270 nM	680 nM
CO[C@@H]1[C@@H](n2cc(-c3cc(F)c(F)c(F)c3)nn2)[C@@H](O)[C@@H](CO)O[C@@H]1CC1CC(c2cncnc2)=NO1 (stereo partly drawn) [Ex 1.15]	3200 nM	650 nM
OC[C@H]1O[C@H](CC2CC(c3ccncc3)=NO2)[C@H](O)[C@@H](n2cc(-c3cc(F)c(F)c(F)c3)nn2)[C@H]1O (stereo partly drawn) [Ex 1.16]	6620 nM	430 nM
CO[C@@H]1[C@@H](n2cc(-c3cc(F)c(F)c(F)c3)nn2)[C@@H](O)[C@@H](CO)O[C@@H]1CC1CC(c2ccncc2)=NO1 (stereo partly drawn) [Ex 1.17]	8790 nM	700 nM
OC[C@H]1O[C@H](CC2CC(c3cccc(Cl)c3)=NO2)[C@H](O)[C@@H](n2cc(-c3cc(F)c(F)c(F)c3)nn2)[C@H]1O (stereo partly drawn) [Ex 1.18]	14100 nM	970 nM
CO[C@@H]1[C@@H](n2cc(-c3cc(F)c(F)c(F)c3)nn2)[C@@H](O)[C@@H](CO)O[C@@H]1CC1CC(C2CCOCC2)=NO1 (stereo partly drawn) [Ex 1.19]	5580 nM	530 nM
CO[C@@H]1[C@@H](n2cc(-c3cc(F)c(F)c(F)c3)nn2)[C@@H](O)[C@@H](CO)O[C@@H]1CC1CC(c2ccc3[nH]c(=O)oc3c2)=NO1 (stereo partly drawn) [Ex 1.20]	4270 nM	240 nM
O=c1[nH]c2ccc(C3=NOC(C[C@H]4O[C@H](CO)[C@H](O)[C@H](n5cc(-c6cc(F)c(F)c(F)c6)nn5)[C@H]4O)C3)cc2o1 (stereo partly drawn) [Ex 1.21]	4770 nM	150 nM
OC[C@H]1O[C@H](CC2CC(C3CCOCC3)=NO2)[C@H](O)[C@@H](n2cc(-c3cc(F)c(F)c(F)c3)nn2)[C@H]1O (stereo partly drawn) [Ex 1.22]	4480 nM	430 nM
COc1ccc(C2=NOC(C[C@H]3O[C@H](CO)[C@H](O)[C@H](n4cc(-c5cc(F)c(F)c(F)c5)nn4)[C@H]3O)C2)cn1 (stereo partly drawn) [Ex 1.23]	6800 nM	700 nM
COc1cc(C2=NOC(C[C@H]3O[C@H](CO)[C@H](O)[C@H](n4cc(-c5cc(F)c(F)c(F)c5)nn4)[C@H]3O)C2)ccn1 (stereo partly drawn) [Ex 1.24]	13300 nM	800 nM

More lines, now with the values ahead:

IC50 (human Gal-1 (hGal-1))	IC50 (human Gal-3 (hGal-3))	Compound
4970 nM	670 nM	COc1ccc(C2=NOC(C[C@H]3O[C@H](CO)[C@H](O)[C@H](n4cc(-c5cc(F)c(F)c(F)c5)nn4)[C@H]3O)C2)cc1O (stereo partly drawn) [Ex 1.25]
17500 nM	1150 nM	OC[C@H]1O[C@H](CC2CC(c3ccc4[nH]cnc4c3)=NO2)[C@H](O)[C@@H](n2cc(-c3cc(F)c(F)c(F)c3)nn2)[C@H]1O (stereo partly drawn) [Ex 1.26]
6540 nM	410 nM	OC[C@H]1O[C@H](CC2CC(c3cn[nH]c3)=NO2)[C@H](O)[C@@H](n2cc(-c3cc(F)c(F)c(F)c3)nn2)[C@H]1O (stereo partly drawn) [Ex 1.27]
18900 nM	470 nM	Cn1c(=O)[nH]c2cc(C3=NOC(C[C@H]4O[C@H](CO)[C@H](O)[C@H](n5cc(-c6cc(F)c(F)c(F)c6)nn5)[C@H]4O)C3)ccc21 (stereo partly drawn) [Ex 1.28]
> 100000 nM	2140 nM	CO[C@@H]1[C@@H](n2cc(-c3cc(F)c(F)c(F)c3)nn2)[C@@H](O)[C@@H](CO)O[C@@H]1C[C@H]1CC(c2ccc3[nH]c(=O)oc3c2)=NO1 [Ex 1.29]
3090 nM	330 nM	CO[C@@H]1[C@@H](n2cc(-c3cc(F)c(F)c(F)c3)nn2)[C@@H](O)[C@@H](CO)O[C@@H]1C[C@@H]1CC(c2ccc3[nH]c(=O)oc3c2)=NO1 [Ex 1.30]
13500 nM	1130 nM	O=c1[nH]c2ccc(C3=NO[C@@H](C[C@H]4O[C@H](CO)[C@H](O)[C@H](n5cc(-c6cc(F)c(F)c(F)c6)nn5)[C@H]4O)C3)cc2o1 [Ex 1.31]
1150 nM	53 nM	O=c1[nH]c2ccc(C3=NO[C@@H](C[C@H]4O[C@H](CO)[C@H](O)[C@H](n5cc(-c6cc(F)c(F)c(F)c6)nn5)[C@H]4O)C3)cc2o1 [Ex 1.32]
7940 nM	800 nM	OC[C@H]1O[C@H](CC2CC(c3ccc4cn[nH]c4c3)=NO2)[C@H](O)[C@@H](n2cc(-c3cc(F)c(F)c(F)c3)nn2)[C@H]1O (stereo partly drawn) [Ex 1.33]
10600 nM	880 nM	OC[C@H]1O[C@H](CC2CC(c3ccc4[nH]ncc4c3)=NO2)[C@H](O)[C@@H](n2cc(-c3cc(F)c(F)c(F)c3)nn2)[C@H]1O (stereo partly drawn) [Ex 1.34]
5580 nM	1000 nM	OC[C@H]1O[C@H](CC2=NOC(C3CCCCC3)C2)[C@H](O)[C@@H](n2cc(-c3cc(F)c(F)c(F)c3)nn2)[C@H]1O (stereo partly drawn) [Ex 1.35]
10900 nM	2540 nM	OC[C@H]1O[C@H](CC2=NOC(Cc3ccccc3)C2)[C@H](O)[C@@H](n2cc(-c3cc(F)c(F)c(F)c3)nn2)[C@H]1O (stereo partly drawn) [Ex 1.36]
7700 nM	440 nM	Cc1ncsc1C1CC(C[C@H]2O[C@H](CO)[C@H](O)[C@H](n3cc(-c4cc(F)c(F)c(F)c4)nn3)[C@H]2O)=NO1 (stereo partly drawn) [Ex 1.37]
15900 nM	1420 nM	OCCC1CC(C[C@H]2O[C@H](CO)[C@H](O)[C@H](n3cc(-c4cc(F)c(F)c(F)c4)nn3)[C@H]2O)=NO1 (stereo partly drawn) [Ex 1.38]
9940 nM	710 nM	CC(C)(O)C1CC(C[C@H]2O[C@H](CO)[C@H](O)[C@H](n3cc(-c4cc(F)c(F)c(F)c4)nn3)[C@H]2O)=NO1 (stereo partly drawn) [Ex 1.39]
740 nM	43 nM	CC(C)(C)OC(=O)N1CCC(c2cc(C[C@H]3O[C@H](CO)[C@H](O)[C@H](n4cc(-c5cc(F)c(F)c(F)c5)nn4)[C@H]3O)no2)CC1 [Ex 1.40]
